Molecules are shown by their SMILES.

`CCNC(=O)c1ccc(N2CCN(Cc3cnc4c(c3)[nH]c(=O)n3cccc43)CC2)c(C)c1` came in with a melting point of 255 to 258 °C.

`COc1ccc2c(c1)C(=O)N(c1ccc(C(C)C)cn1)C2` registered a melting point of 109 to 110 °C.

`CCCc1nc2ccnn2c(Cl)c1Cc1ccc(-c2ccccc2C#N)cc1` gave a melting point of 137 °C.

On to `c1ccc2c(c1)nc(NC1CCCC1)c1nncn12`, for which the melting point is 257 to 260 °C.

`CC(=O)NNC1=Nc2sc(Cl)cc2C(c2ccccc2Cl)=NC1` came in with a melting point of 211 to 213 °C.

In the case of `CNc1ncnc2c1ncn2C1OC(CO)C(O)C1O` (centres undefined), the melting point was found to be 202 °C.

`COc1ccc(-c2c(Cl)c(CCl)nc3sc4c(c23)CCN(Cc2ccccc2)C4)cc1OC` yielded a melting point of 171 to 172 °C.

In the case of `O=CNCc1ccc(CN2CCN(c3ncccn3)CC2)cc1`, the melting point lay within 97 to 98 °C.

For the compound `Cc1nc(Cl)c(-c2c(F)cccc2F)n1-c1ccc(Cl)cc1`, the melting point was in the range of 143 to 145 °C.

`CN(C(=O)N[C@@H](Cc1ccc(Nc2nccc3cnccc23)cc1)C(=O)O)c1ccccc1Cc1ccccc1` registered a melting point of 141 °C.

With `Cc1cccc(NC(=O)NCC(=O)N(CC(=O)OCc2ccccc2)c2ccccc2)c1`, the melting point is 140 °C.

As to `CC=CCn1c(C)c(C)c2cnnc(OCc3ccco3)c21`, the melting point is 84 to 85 °C.

In turn, `COC(=O)C1C(=O)N(C)C(=O)c2ccc(Cl)cc21` (centres undefined) registered a melting point of 166 to 167 °C.

In the case of `Cc1cc(N)ccc1NCCNC(N)=O`, the melting point came out at 143 °C.

On to `N#CC(C(=O)NC1CCCCC1)=C1Nc2ccccc2O1`, for which the melting point fell in the range of 185 to 187 °C.

The compound `O=C(OC1CCCCCCC1=O)c1ccccc1` (centres undefined) showed a melting point of 92 to 93 °C.

For the compound `CN1CCC(N2CC=CC3=C2C(O)c2ccc(Cl)cc2SC3)CC1` (centres undefined), the melting point lay within 158 to 160 °C.

Take `COc1nc(C(F)(F)F)c(F)c(=O)n1-c1cc(C(=O)O)c(Cl)cc1F`: the melting point fell in the range of 199 to 201 °C.

Turning to `CCCCCCCCOc1ccc(-c2nnc(-c3cc(Cl)ccc3Cl)o2)cc1`, the melting point was found to be 86 °C.

`CCOC(=O)NCn1cccc1C(=O)c1ccc(Cl)cc1Cl` registered a melting point of 79 to 80 °C.

`CCCCCCCCCCCc1nc(N)n[nH]1` yielded a melting point of 128 to 132 °C.

For the compound `O=C(c1ccccc1)c1ccc(OCCCOc2ccc(C(=O)c3ccccc3)cc2)cc1`, the melting point was 146 to 148 °C.

As to `COc1cc(C)nc(C)c1C(=O)OC(C)c1nc2c(c(=O)n(C)c(=O)n2C)n1C` (centres undefined), the melting point lay within 135 to 138 °C.

As for `O=C1c2ccccc2C(=O)N1CCCCN1CCC(c2noc3cc(F)ccc23)CC1`, the melting point fell in the range of 144 to 146 °C.

`COC(=O)c1c(Cl)cccc1S(N)(=O)=O` yielded a melting point of 144 to 149 °C.

On to `CCCCNC(=O)Oc1cccc(NC(=O)CC(C)(OCC)OCC)c1`, for which the melting point is 130 °C.

In turn, `Cc1nc(-c2ccc3c(c2)c(-c2cc4cccnc4[nH]2)cn3C)no1` gave a melting point of 290 to 294 °C.

For `N#Cc1cccc(-n2ncc(C(=O)O)c2C#N)c1`, the melting point was in the range of 190 to 192 °C.

`CN(C)C(=O)c1cccnc1C(=O)c1cccc(C(F)(F)F)c1` yielded a melting point of 100 to 103 °C.

The compound `COC(=O)c1nc(-c2ccc(Cl)c(OC)c2F)nc(O)c1Br` displayed a melting point of 192 to 195 °C.

The compound `COC(=O)c1ccc2nc(Sc3nnc(C)s3)c(C(F)(F)F)nc2c1` returned a melting point of 151 to 152 °C.

Consider `CN(C)CC(=Cc1ccc(/C=C/C(=O)O)cc1)O[Si](C)(C)C(C)(C)C`, for which the melting point was found to be 207 °C.

For the compound `Cc1c(C)c2c(c(C)c1O)CCC(C)(C)O2`, the melting point fell in the range of 85 to 88 °C.

Take `O=C(c1cccs1)c1ccc(Cl)cc1Cl`: the melting point is 75 °C.

`O=C(Nc1ccccc1S(=O)(=O)c1ccccc1)N[C@@H](Cc1ccc(NC(=O)c2c(Br)cncc2Br)cc1)C(=O)O` showed a melting point of 231 °C.

In turn, `CN1CC[C@@H](c2c(O)cc(O)c3c(=O)cc(-c4c(F)cccc4F)oc23)[C@@H]1CO` gave a melting point of 242 to 244 °C.

In the case of `COC(=O)c1ccc(CC23CCCN2C(=O)N(c2cc(Cl)c(O)c(Cl)c2)C3=O)cc1` (centres undefined), the melting point amounted to 105 °C.

`COC(=O)c1cccc(-c2cccc(Oc3ccc(Cl)cc3Cl)n2)c1` came in with a melting point of 112 to 113 °C.

On to `CC(C)(C)OC(=O)NC1(CCO)CC1`, for which the melting point was in the range of 93 to 95 °C.

Consider `CCCc1nn(C)c2c(=O)[nH]c(-c3cc(C(O)CN4CCNCC4)ccc3OCC)nc12` (centres undefined), for which the melting point fell in the range of 130 to 140 °C.

On to `CCOC(=O)c1nn(-c2ccc(Cl)cc2Cl)c(-c2ccc(Cl)cc2)c1C`, for which the melting point was 124 °C.

In the case of `OCc1cccc(-n2cccc2)c1`, the melting point lay in the range of 64 to 67 °C.

Take `O=C(Nc1cccc(C(F)(F)F)c1)c1cc(-c2ccc(F)cc2F)ccc1O`: the melting point fell in the range of 202 to 203 °C.

`CCc1cnc(C2=NC(C)(C(C)C)C(=O)N2)c(C(=O)NCCCC(=O)O)c1` (centres undefined) had a melting point of 165 to 167 °C.

Consider `CCC(=O)Oc1cc(OC)cc(OC)c1C(=O)C=Cc1ccc(OC)cc1`, for which the melting point was in the range of 117 to 118 °C.

`O=[N+]([O-])C1(Cl)C=CC(S(=O)c2ccc(Br)cc2)=CC1` (centres undefined) displayed a melting point of 138 to 140 °C.

In the case of `CC(C)OC(=O)CS(=O)(=O)C=C1SC=CS1`, the melting point was in the range of 127 to 128 °C.

Compound `COC(=O)Oc1nc2c(N)ncnc2n1Cc1ccccc1` gave a melting point of more than 300 °C.

The compound `CCOC(=O)c1cc2sc(C3CCC(c4c(F)cccc4F)=N3)cc2s1` (centres undefined) displayed a melting point of 107 °C.

`FC(F)(F)c1cc(Cl)c(-n2ncc(CS)n2)c(Cl)c1` came in with a melting point of 58 to 60 °C.

`O=C(NO)[C@H]1CN(C(=O)NC2CCCCC2)CCN1S(=O)(=O)c1ccc(-c2ccc(F)cc2)s1` gave a melting point of 111 to 123 °C.

In turn, `CO/N=C1\CCc2ccccc2C1=Cc1ccc(S(C)(=O)=O)cc1` yielded a melting point of 175 to 178 °C.

As for `Cc1cc(O)c(C2CCCCC2)cc1Sc1cc(C2CCCCC2)c(O)cc1C`, the melting point was in the range of 128 to 130 °C.

For `C[Si](C)(C)CC(CN)CC(=O)O` (centres undefined), the melting point lay in the range of 167 to 168 °C.

`O=c1oc(-c2ccccc2)cc(O)c1SCc1ccc2c(c1)OCO2` came in with a melting point of 162 to 164 °C.

On to `COc1ccc(C=C2SC(=O)N(CCc3ccccn3)C2=O)cc1-c1cc2c(cc1C)C(C)(C)CCC2(C)C`, for which the melting point lay in the range of 170 to 171 °C.

Turning to `CC(C)N(C)c1ncc(C2CC2(C)C(N)=O)cc1Cl` (centres undefined), the melting point was 86 to 87 °C.

As to `CCCCNC(=O)c1cccc(S(=O)(=O)NC(=O)c2ccc(C(=O)NCC(=O)O)nc2)c1`, the melting point was found to be 220 °C.

The compound `CCN1C(=O)C(C)(C)C(=O)N(C)c2cc(CN(CCn3cc(C)c4sccc4c3=O)Cc3cnccc3C)ccc21` gave a melting point of 174 to 175 °C.

For the compound `NNC(=O)c1ccc(OCc2ccccc2)cn1`, the melting point was in the range of 140 to 142 °C.

The compound `CCn1nc2oc(C=CC(N)=O)c(C)c2c1C` displayed a melting point of 258 to 260 °C.

On to `CC(C)OC(=O)N[C@@H](C(=O)O)c1ccccc1`, for which the melting point was in the range of 123 to 127 °C.

In turn, `CCCCCCCCCCNC(=O)c1ccccc1N(CC(=O)OC)CC(=O)OC` displayed a melting point of 35 to 38 °C.

In the case of `O=C(O)CCSC(SCCC(=O)O)c1cccc(OCc2ccc3ccccc3n2)c1`, the melting point is 150 to 152 °C.

Take `CCc1cc2c(cc1OC)C(CN1CCC(c3noc4cc(F)ccc34)CC1)=C2`: the melting point lay within 92 to 97 °C.

As for `Cn1c([N+](=O)[O-])cnc1-c1nnc2ccc(N=C(N)CCO)nn12`, the melting point was 191 to 192 °C.

For `OCCC1CC(n2nnc3c(NC4CC4c4ccccc4)nc(Sc4ccc(C(F)(F)F)cc4)nc32)C(O)C1O` (centres undefined), the melting point was in the range of 100 to 102 °C.

In the case of `Cc1c(S(=O)c2ccc([N+](=O)[O-])cc2)cc(C(C)(C)C)c(O)c1C(=O)O` (centres undefined), the melting point lay within 201 to 202 °C.

`CCCN1CCCCC1C(=O)Nc1c(C)cccc1C` (centres undefined) showed a melting point of 142 to 145 °C.

Regarding `COC(=O)Cc1c(Br)csc1Br`, the melting point was in the range of 38.5 to 39 °C.

Turning to `CC(C)C1(CCc2ccccc2CO)CC(O)=C(Sc2sc3ccccc3c2C(C)(C)C)C(=O)O1` (centres undefined), the melting point lay within 92 to 94 °C.

`COc1cc2c(Nc3ccc(Sc4nccn4C)c(Cl)c3)c(C#N)cnc2cc1N1CCC(N2CCCCC2)CC1` had a melting point of 221 to 223 °C.

`C/C(=C\CNc1ncnc2nc(N(C)C)[nH]c12)CO` displayed a melting point of 245 to 249 °C.

In turn, `COc1ccc(N2C(=O)C(OC)C2c2ccc(C(=O)O)cc2)cc1` (centres undefined) gave a melting point of 233 °C.

Compound `CC(=O)Nc1nc(C)c(S(=O)(=O)NC(CO)CO)s1` registered a melting point of 217 °C.

In the case of `CNCCCN(C)C(=O)[C@@H]1CCCN1S(=O)(=O)c1ccc(Cl)c(COc2cccc3c(-n4ccnc4)cc(C)nc23)c1Cl`, the melting point amounted to 125 °C.

In turn, `c1ccc2c(c1)SCCc1c-2n(Cc2ccc(OCCCN3CCCCC3)cc2)c2ccccc12` had a melting point of 70 to 71 °C.

Regarding `COc1ccc(C(=O)Nc2c(Cl)cncc2Cl)c2c1oc1ccncc12`, the melting point was more than 260 °C.

With `CCOCCN(C)c1ccc(-c2ccc3c(c2)C=C(C(=O)Nc2ccc(CN(C)C4CCOCC4)cc2)CCS3(=O)=O)cc1`, the melting point was 190 to 192 °C.

As for `COc1ccc(/C(C)=C\c2ccc(C(=O)O)cc2)cc1C(C)(C)C`, the melting point was 182 to 184 °C.

As to `CC(=O)n1c(C)cc(=O)n(-c2cc(C(=O)OC(C)C)c(Cl)cc2F)c1=O`, the melting point was 168 to 170 °C.

In the case of `Clc1cccc2c1C1=NCCN1C1C(c3ccccc3)CCN21` (centres undefined), the melting point fell in the range of 249 to 250 °C.

The compound `O=C(CCC1C2CC3CC(C2)CC1C3)N1C(=O)OCC1Cc1ccccc1` (centres undefined) showed a melting point of 82 to 83 °C.

As for `COC1=C(Cl)C(=O)NC1=Nc1ccccc1`, the melting point lay in the range of 179 to 180 °C.

For the compound `Cc1nc2c(n1C)C(=O)c1ccccc1C2=O`, the melting point was more than 253 °C.

`CC(C#Cc1ccc(C(O)c2cc3ccccc3s2)s1)N(O)C(N)=O` (centres undefined) came in with a melting point of 65 to 70 °C.

Regarding `O=C(c1ccccc1)c1ccc2n1CCCCC2C(=O)O` (centres undefined), the melting point lay in the range of 163 to 165 °C.

Compound `COc1cc2cc(C(=O)O)sc(=O)c2cc1OC` had a melting point of 306 to 307 °C.

`CC(=O)Nc1cc(C)c(N)cc1C`: the melting point was in the range of 133 to 135 °C.

These data come from a melting point compilation (Tetko et al.; mined from patent text by program, amines drawn as free bases though some values may be those of a salt).
